Among the data in PubChem BioAssay (NCI) are GI50 and TGI values, retold here.

Values joined by “and” are separate entries in the source; they are usually repeats but may differ in a detail not shown here. Identical values can stand only once.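 The compound was tested at five concentrations on cells cultured in 96-well plates, with a 48-hour exposure period. Abbreviation: GI50, concentration required for 50% inhibition of growth. TGI marks complete inhibition of growth.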 Where only a bound is given, the exact number is not on record here.

Some test systems named below: HS 578T breast; DU-145 prostate; BT-549 breast; NCI/ADR-RES ovarian; T-47D breast; MDA-MB-231 breast.
Assay in all cases: DTP human tumour cell line panel, 48 h

In general, GI50 refers to the concentration that inhibits growth by half. A word on the TGI: it is the concentration at which net growth stops. `CCC(=O)N1C/C(=C/c2ccc(OC)cc2)C(=O)/C(=C/c2ccc(OC)cc2)C1`: the GI50 was 2.35 µM in the assay with HS 578T breast; 2.91 µM in the assay on DU-145 prostate; 1.88 µM in the assay with BT-549 breast; 3.54 µM with NCI/ADR-RES ovarian; 5.1 µM with T-47D breast; 1.98 µM in the assay with MDA-MB-231 breast. Also, the TGI with HS 578T breast was 7.47 µM; in the assay with DU-145 prostate, 10.6 µM; with BT-549 breast it was 3.5 µM; in the assay on NCI/ADR-RES ovarian, > 100 µM; in the assay with T-47D breast it was > 100 µM; with MDA-MB-231 breast, 4.28 µM.
For `N#CC1C(N)=NNC1c1ccc(-c2ccc(-c3nc4ccccc4o3)cc2)o1` (configuration not stated), the GI50 was 29.6 µM in the assay on HS 578T breast; 15.3 µM in the assay on DU-145 prostate; 24 µM in the assay with BT-549 breast; 36 µM in the assay on NCI/ADR-RES ovarian; 68.5 µM in the assay on T-47D breast; 15.3 µM in the assay on MDA-MB-231 breast. Besides, the TGI in the assay on HS 578T breast is > 100 µM; with DU-145 prostate it was 41.1 µM; with BT-549 breast, 75.7 µM; in the assay on NCI/ADR-RES ovarian, 75.6 µM; with T-47D breast it was > 100 µM; in the assay with MDA-MB-231 breast it was 65.8 µM.
Take `OC1CCC(Oc2cccc3cnc(Nc4ccc5nc[nH]c5c4)nc23)CC1` (configuration not stated): the GI50 was 0.728 µM in the assay with HS 578T breast; 0.246 µM in the assay with DU-145 prostate; 0.22 µM in the assay with BT-549 breast; 1.6 µM in the assay on NCI/ADR-RES ovarian; 1.03 µM with T-47D breast; 0.389 µM in the assay on MDA-MB-231 breast. For the same molecule, the concentration for total growth inhibition (TGI) in the assay on HS 578T breast came to 8.32 µM; with DU-145 prostate, 17.2 µM; in the assay on BT-549 breast it was 0.906 µM; in the assay on NCI/ADR-RES ovarian it was 13 µM; in the assay with T-47D breast it was 14.4 µM; in the assay on MDA-MB-231 breast, 19.8 µM.
`CN(C)CCNC(=O)c1cccc(CO)c1[N+](=O)[O-]`: the concentration for total growth inhibition (TGI) in the assay with HS 578T breast, in the assay on DU-145 prostate, with BT-549 breast, in the assay on NCI/ADR-RES ovarian, with T-47D breast and with MDA-MB-231 breast was > 100 µM in each case.
In the case of `Cc1ccc(S(=O)(=O)NCCN2c3nc4ccccc4cc3Sc3cc4ccccc4nc32)cc1`, the GI50 was 2.43 µM in the assay on HS 578T breast; > 100 µM with DU-145 prostate; 17.4 µM with BT-549 breast; > 25.1 µM in the assay with NCI/ADR-RES ovarian; 4.54 µM in the assay on T-47D breast; 4.61 µM in the assay on MDA-MB-231 breast. In addition, the TGI is 23.2 µM in the assay with HS 578T breast; > 100 µM in the assay on DU-145 prostate; > 100 µM with BT-549 breast; > 100 µM in the assay on NCI/ADR-RES ovarian; > 100 µM in the assay on T-47D breast; > 100 µM with MDA-MB-231 breast.
In the case of `C=C1C(=O)O[C@H]2[C@H]1CC/C(COC(=O)c1ccc(C(=O)O)s1)=C\CC[C@@]1(C)O[C@@H]21`, the GI50 in the assay with HS 578T breast is 4.79 µM; in the assay on DU-145 prostate, 1.59 µM; with BT-549 breast, 1.72 µM; with NCI/ADR-RES ovarian, 3.4 µM; with T-47D breast, 2.22 µM; in the assay on MDA-MB-231 breast, 1.6 µM. Moreover, the TGI is 64.5 µM in the assay on HS 578T breast; 3.13 µM in the assay with DU-145 prostate; 4.85 µM with BT-549 breast; 26.2 µM in the assay on NCI/ADR-RES ovarian; 5.53 µM in the assay with T-47D breast; 3.06 µM in the assay with MDA-MB-231 breast.
Turning to `CCN(CC)CC(C)Nc1ccc(C)c2sc3ccccc3c(=O)c12` (configuration not stated), the GI50 in the assay with HS 578T breast is 2.29 µM; in the assay with DU-145 prostate, 6.68 µM; with BT-549 breast, 7.14 µM; in the assay with NCI/ADR-RES ovarian, 5.56 µM; in the assay on T-47D breast, 3.28 µM; in the assay on MDA-MB-231 breast it was 2.42 µM. For the same molecule, the concentration for total growth inhibition (TGI) with HS 578T breast was 9 µM; with DU-145 prostate, 19.1 µM; in the assay on BT-549 breast it was 21 µM; in the assay on NCI/ADR-RES ovarian, 18.7 µM; with T-47D breast, 19.4 µM; in the assay with MDA-MB-231 breast, 8.99 µM.
With `Cn1cnc([N+](=O)[O-])c1Sc1ncnc2nc[nH]c12`, the GI50 with HS 578T breast was 4.8 µM and 3.86 µM; with DU-145 prostate it was 3.03 µM and 4.36 µM; in the assay with BT-549 breast, 12.2 µM and 7.26 µM; in the assay with NCI/ADR-RES ovarian, 3.27 µM and 5.39 µM; with T-47D breast, 2.75 µM and 4.51 µM; with MDA-MB-231 breast, 8.83 µM and 11.7 µM. Moreover, the concentration for total growth inhibition (TGI) in the assay with HS 578T breast, in the assay with DU-145 prostate, in the assay on BT-549 breast, in the assay on NCI/ADR-RES ovarian, with T-47D breast and in the assay on MDA-MB-231 breast was > 100 µM in each case.
As for `O=C1C=C(c2cc(Br)c(O)c(Br)c2)/C(=C/c2cc(Br)c(O)c(Br)c2)O1`, the GI50 in the assay with HS 578T breast is 33.9 µM; in the assay on DU-145 prostate, 31.7 µM; in the assay on BT-549 breast it was 28.6 µM; with NCI/ADR-RES ovarian, 40.3 µM; with T-47D breast it was > 75 µM; in the assay on MDA-MB-231 breast, 32 µM. Moreover, the TGI in the assay on HS 578T breast, in the assay on DU-145 prostate, in the assay with BT-549 breast, with NCI/ADR-RES ovarian, in the assay on T-47D breast and in the assay with MDA-MB-231 breast was > 75 µM throughout.
For `O=S(=O)(O)c1ccc2cc(N=Nc3cc(S(=O)(=O)O)c4cccnc4c3O)ccc2c1`, the total growth inhibition concentration (TGI) in the assay on HS 578T breast, in the assay on DU-145 prostate, in the assay with BT-549 breast, in the assay with NCI/ADR-RES ovarian, in the assay with T-47D breast and in the assay on MDA-MB-231 breast was > 100 µM in each case.
For the molecule `COC(=O)c1ccc2c(c1)c1c(C)c3cnccc3c(C)c1n2C`, the GI50 in the assay on HS 578T breast was 0.108 µM; in the assay with DU-145 prostate, 0.0513 µM; in the assay with BT-549 breast it was 0.247 µM; in the assay with NCI/ADR-RES ovarian, 0.0498 µM; in the assay with T-47D breast, 0.28 µM; in the assay on MDA-MB-231 breast it was 0.125 µM. For the same molecule, the TGI in the assay with HS 578T breast came out at 0.584 µM; in the assay on DU-145 prostate it was 1.28 µM; in the assay on BT-549 breast, 3.54 µM; with NCI/ADR-RES ovarian, 0.636 µM; in the assay with T-47D breast, 2.25 µM; in the assay on MDA-MB-231 breast, 0.884 µM.
With `CCN(CC)C(=S)SSC1CCCCC1`, the GI50 in the assay on HS 578T breast was 27.4 µM; with DU-145 prostate, 20.3 µM; in the assay on BT-549 breast it was 19 µM; with NCI/ADR-RES ovarian, 21.3 µM; in the assay with T-47D breast, 22.2 µM; in the assay on MDA-MB-231 breast, 17.3 µM. Further, the TGI with HS 578T breast was 88.2 µM; in the assay on DU-145 prostate, 45.5 µM; in the assay with BT-549 breast it was 46.5 µM; in the assay on NCI/ADR-RES ovarian, 47 µM; with T-47D breast it was 66.4 µM; in the assay on MDA-MB-231 breast, 37.1 µM.
